Source: patent publication USRE48335E1, “Polymyxin derivatives as antimicrobial compounds” (priority 2014, dated 2020)
Values after ≈ are worked out from the molar mass of the structure shown. Where two headings read alike, the source gives them in different places. Positions of bridges follow the written chain, without caps; N, C: chain ends. Non-standard residues stand in square brackets, D forms with d. Residues, ends and D or L forms follow the SMILES beside them. *: point of attachment. Benzoyl(3-CF3) = O=C(c1cccc(C(F)(F)F)c1)*; Benzoyl(4-CF3) = O=C(c1ccc(C(F)(F)F)cc1)*; X28 = O=C(c1ccc(F)cc1Cl)*; dNva = CCC[C@@H](N)C(=O)O; Octanoyl = CCCCCCCC(=O)*; Orn = NCCC[C@H](N)C(=O)O; Dab = NCC[C@H](N)C(=O)O; X43 = O=C(c1cccc(F)c1)*; Abu = CC[C@H](N)C(=O)O; Dap = NC[C@H](N)C(=O)O; PhAc = O=C(Cc1ccccc1)*; X40 = O=C(c1ccccc1F)*; Aib = CC(C)(N)C(=O)O

Tests used:
Pseudomonas aeruginosa = tested on: Pseudomonas aeruginosa
Procedure, shortened: (§1)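 Using polymyxin B sulphate as comparator control, the trifluoroacetate-salt lipopeptides were assayed in CAMHB by broth microdilution to CLSI M100-S18, and MICs recorded.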

Enterobacter cloacae = tested on: Enterobacter cloacae
Procedure, shortened: as §1

Acinetobacter baumannii = tested on: Acinetobacter baumannii
Procedure, shortened: as §1

SMILES | Minimum inhibitory concentration, Pa ATCC 27853 (Pseudomonas aeruginosa) | Minimum inhibitory concentration, Pa FADDI-PA022 (Pseudomonas aeruginosa) | Minimum inhibitory concentration, Pa FADDI-PA025 (Pseudomonas aeruginosa) | Minimum inhibitory concentration, Ec FADDI-EC001 (Enterobacter cloacae) | Minimum inhibitory concentration, Ec FADDI-EC003 (Enterobacter cloacae) | Minimum inhibitory concentration, Ec FADDI-EC006 (Enterobacter cloacae) | Minimum inhibitory concentration, Ab A ATCC 17978 (Acinetobacter baumannii) | Minimum inhibitory concentration, Ab ATCC 19606 (Acinetobacter baumannii) | Minimum inhibitory concentration, Ab FADDI-AB034 (Acinetobacter baumannii) | further results
CC(C)C[C@H]1NC(=O)[C@H](CCN)NC(=O)[C@@H](NC(=O)[C@@H](CO)NC(=O)[C@@H](NC(=O)[C@H](CCN)NC(=O)Cc2ccccc2)[C@@H](C)O)CCNC(=O)[C@H]([C@@H](C)O)NC(=O)[C@H](CCN)NC(=O)[C@H](CCN)NC(=O)[C@H]([C@@H](C)O)NC1=O [Compound 12] (PhAc-[Dab]T[dS][Dab][Dab][dL]T[Dab][Dab]T; lactam 4-C) | – | – | – | – | – | – | – | – | – | Minimum inhibitory concentration, Pa ATCC 27853 (Pseudomonas aeruginosa; Pseudomonas aeruginosa ATCC 27853, broth microdilution in CAMHB): >32 µg/mL; Minimum inhibitory concentration, Pa FADDI-PA022 (Pseudomonas aeruginosa; Pseudomonas aeruginosa FADDI-PA022, broth microdilution in CAMHB): 8 µg/mL (≈ 7.13 µM); Minimum inhibitory concentration, Pa FADDI-PA025 (Pseudomonas aeruginosa; Pseudomonas aeruginosa FADDI-PA025, broth microdilution in CAMHB): >32 µg/mL; Minimum inhibitory concentration, Ec FADDI-EC001 (Enterobacter cloacae; Enterobacter cloacae FADDI-EC001, broth microdilution in CAMHB): 0.25 µg/mL (≈ 0.223 µM); Minimum inhibitory concentration, Ec FADDI-EC003 (Enterobacter cloacae; Enterobacter cloacae FADDI-EC003, broth microdilution in CAMHB): 0.5 µg/mL (≈ 0.446 µM); Minimum inhibitory concentration, Ec FADDI-EC006 (Enterobacter cloacae; Enterobacter cloacae FADDI-EC006, broth microdilution in CAMHB): 1 µg/mL (≈ 0.891 µM); Minimum inhibitory concentration, Ab A ATCC 17978 (Acinetobacter baumannii; Acinetobacter baumannii ATCC 17978, broth microdilution in CAMHB): 4 µg/mL (≈ 3.56 µM); Minimum inhibitory concentration, Ab ATCC 19606 (Acinetobacter baumannii; Acinetobacter baumannii ATCC 19606, broth microdilution in CAMHB): 4 µg/mL (≈ 3.56 µM); Minimum inhibitory concentration, Ab FADDI-AB034 (Acinetobacter baumannii; Acinetobacter baumannii FADDI-AB034, broth microdilution in CAMHB): 4 µg/mL (≈ 3.56 µM)
CC[C@@H]1NC(=O)[C@@H](CC(C)C)NC(=O)[C@H](CCN)NC(=O)[C@@H](NC(=O)[C@H](CN)NC(=O)[C@@H](NC(=O)[C@H](CCN)NC(=O)c2ccccc2F)[C@@H](C)O)CCNC(=O)[C@H]([C@@H](C)O)NC(=O)[C@H](CCN)NC(=O)[C@H](CCN)NC1=O [Compound 73] (X40-[Dab]T[Dap][Dab][Dab][dL][Abu][Dab][Dab]T; lactam 4-C) | 0.5 µg/mL (≈ 0.451 µM) | 1 µg/mL (≈ 0.901 µM) | 4 µg/mL (≈ 3.61 µM) | 0.25 µg/mL (≈ 0.225 µM) | 0.25 µg/mL (≈ 0.225 µM) | 1 µg/mL (≈ 0.901 µM) | 4 µg/mL (≈ 3.61 µM) | 8 µg/mL (≈ 7.21 µM) | 4 µg/mL (≈ 3.61 µM) | –
CCCCCCCC(=O)N[C@@H](CCN)C(=O)N[C@H](C(=O)N[C@@H](CN)C(=O)N[C@H]1CCNC(=O)[C@H]([C@@H](C)O)NC(=O)[C@H](CCN)NC(=O)[C@H](CCN)NC(=O)[C@H](C)NC(=O)[C@@H](Cc2ccccc2)NC(=O)[C@H](CCN)NC1=O)[C@@H](C)O [Compound 128] (Octanoyl-[Dab]T[Dap][Dab][Dab][dF]A[Dab][Dab]T; lactam 4-C) | 0.5 µg/mL (≈ 0.441 µM) | 1 µg/mL (≈ 0.882 µM) | 4 µg/mL (≈ 3.53 µM) | <0.125 µg/mL | 0.25 µg/mL (≈ 0.221 µM) | 0.5 µg/mL (≈ 0.441 µM) | 0.25 µg/mL (≈ 0.221 µM) | 0.25 µg/mL (≈ 0.221 µM) | 0.25 µg/mL (≈ 0.221 µM) | –
CC[C@@H]1NC(=O)[C@@H](CC(C)C)NC(=O)[C@H](CCN)NC(=O)[C@@H](NC(=O)[C@H](CN)NC(=O)[C@@H](NC(=O)[C@H](CCN)NC(=O)c2cccc(F)c2)[C@@H](C)O)CCNC(=O)[C@H]([C@@H](C)O)NC(=O)[C@H](CCN)NC(=O)[C@H](CCN)NC1=O [Compound 86] (X43-[Dab]T[Dap][Dab][Dab][dL][Abu][Dab][Dab]T; lactam 4-C) | 0.5 µg/mL (≈ 0.451 µM) | 1 µg/mL (≈ 0.901 µM) | 2 µg/mL (≈ 1.8 µM) | 1 µg/mL (≈ 0.901 µM) | 1 µg/mL (≈ 0.901 µM) | 1 µg/mL (≈ 0.901 µM) | 2 µg/mL (≈ 1.8 µM) | 4 µg/mL (≈ 3.61 µM) | 1 µg/mL (≈ 0.901 µM) | –
CC[C@@H]1NC(=O)[C@@H](CC(C)C)NC(=O)[C@H](CCN)NC(=O)[C@@H](NC(=O)[C@H](CN)NC(=O)[C@@H](NC(=O)[C@H](CCN)NC(=O)c2ccc(F)cc2Cl)[C@@H](C)O)CCNC(=O)[C@H]([C@@H](C)O)NC(=O)[C@H](CCN)NC(=O)[C@H](CCN)NC1=O [Compound 135] (X28-[Dab]T[Dap][Dab][Dab][dL][Abu][Dab][Dab]T; lactam 4-C) | 0.5 µg/mL (≈ 0.437 µM) | 1 µg/mL (≈ 0.874 µM) | 2 µg/mL (≈ 1.75 µM) | <0.125 µg/mL | <0.125 µg/mL | <0.125 µg/mL | 1 µg/mL (≈ 0.874 µM) | 4 µg/mL (≈ 3.5 µM) | 1 µg/mL (≈ 0.874 µM) | –
CC(C)C[C@H]1NC(=O)[C@H](CCN)NC(=O)[C@@H](NC(=O)[C@H](CN)NC(=O)[C@@H](NC(=O)[C@H](CCN)NC(=O)c2ccc(C(F)(F)F)cc2)[C@@H](C)O)CCNC(=O)[C@H]([C@@H](C)O)NC(=O)[C@H](CCN)NC(=O)[C@H](CCN)NC(=O)[C@H]([C@@H](C)O)NC1=O [Compound 56] ({Benzoyl(4-CF3)}-[Dab]T[Dap][Dab][Dab][dL]T[Dab][Dab]T; lactam 4-C) | 0.5 µg/mL (≈ 0.425 µM) | 2 µg/mL (≈ 1.7 µM) | 4 µg/mL (≈ 3.4 µM) | <0.125 µg/mL | <0.125 µg/mL | 0.25 µg/mL (≈ 0.213 µM) | 1 µg/mL (≈ 0.851 µM) | 2 µg/mL (≈ 1.7 µM) | 1 µg/mL (≈ 0.851 µM) | –
CC[C@@H]1NC(=O)[C@@H](CC(C)C)NC(=O)[C@H](CCN)NC(=O)[C@@H](NC(=O)[C@H](CN)NC(=O)[C@@H](NC(=O)[C@H](CCCN)NC(=O)c2cccc(C(F)(F)F)c2)[C@@H](C)O)CCNC(=O)[C@H]([C@@H](C)O)NC(=O)[C@H](CCN)NC(=O)[C@H](CCN)NC1=O [Compound 141] ({Benzoyl(3-CF3)}-[Orn]T[Dap][Dab][Dab][dL][Abu][Dab][Dab]T; lactam 4-C) | – | – | – | – | – | – | – | – | – | Minimum inhibitory concentration (MIC), Pa ATCC 27853 (Pseudomonas aeruginosa): 1 µg/mL (≈ 0.852 µM); Minimum inhibitory concentration (MIC), Pa FADDI-PA022 (Pseudomonas aeruginosa): 1 µg/mL (≈ 0.852 µM); Minimum inhibitory concentration (MIC), Pa FADDI-PA025 (Pseudomonas aeruginosa): 2 µg/mL (≈ 1.7 µM); Minimum inhibitory concentration (MIC), Ec FADDI-EC001 (Enterobacter cloacae): 2 µg/mL (≈ 1.7 µM); Minimum inhibitory concentration (MIC), Ec FADDI-EC003 (Enterobacter cloacae): 1 µg/mL (≈ 0.852 µM); Minimum inhibitory concentration (MIC), Ec FADDI-EC006 (Enterobacter cloacae): 4 µg/mL (≈ 3.41 µM); Minimum inhibitory concentration (MIC), Ab ATCC 17978 (Acinetobacter baumannii): 4 µg/mL (≈ 3.41 µM); Minimum inhibitory concentration (MIC), Ab ATCC 19606 (Acinetobacter baumannii): 16 µg/mL (≈ 13.6 µM); Minimum inhibitory concentration (MIC), Ab FADDI-AB034 (Acinetobacter baumannii): 4 µg/mL (≈ 3.41 µM)
CCCCCCCC(=O)N[C@@H](CCN)C(=O)N[C@H](C(=O)N[C@@H](CN)C(=O)N[C@H]1CCNC(=O)[C@H]([C@@H](C)O)NC(=O)[C@H](CCN)NC(=O)[C@H](CCN)NC(=O)C(C)(C)NC(=O)[C@@H](CC(C)C)NC(=O)[C@H](CCN)NC1=O)[C@@H](C)O [Compound 45] (Octanoyl-[Dab]T[Dap][Dab][Dab][dL][Aib][Dab][Dab]T; lactam 4-C) | 0.5 µg/mL (≈ 0.449 µM) | 1 µg/mL (≈ 0.898 µM) | 16 µg/mL (≈ 14.4 µM) | 0.5 µg/mL (≈ 0.449 µM) | 0.25 µg/mL (≈ 0.225 µM) | 0.5 µg/mL (≈ 0.449 µM) | 4 µg/mL (≈ 3.59 µM) | 8 µg/mL (≈ 7.19 µM) | 2 µg/mL (≈ 1.8 µM) | –
CCCCCCCC(=O)N[C@@H](CCN)C(=O)N[C@H](C(=O)N[C@@H](CCN)C(=O)N[C@H]1CCNC(=O)[C@H]([C@@H](C)O)NC(=O)[C@H](CCN)NC(=O)[C@H](CCN)NC(=O)[C@H](CC)NC(=O)[C@@H](CC(C)C)NC(=O)[C@H](CCN)NC1=O)[C@@H](C)O [Compound 60] (Octanoyl-[Dab]T[Dab][Dab][Dab][dL][Abu][Dab][Dab]T; lactam 4-C) | 0.5 µg/mL (≈ 0.443 µM) | 0.5 µg/mL (≈ 0.443 µM) | 8 µg/mL (≈ 7.1 µM) | <0.125 µg/mL | <0.125 µg/mL | 0.5 µg/mL (≈ 0.443 µM) | 0.5 µg/mL (≈ 0.443 µM) | 1 µg/mL (≈ 0.887 µM) | 0.5 µg/mL (≈ 0.443 µM) | –
CCCCCCCC(=O)N[C@@H](CCN)C(=O)N[C@H](C(=O)N[C@@H](CN)C(=O)N[C@H]1CCNC(=O)[C@H]([C@@H](C)O)NC(=O)[C@H](CCN)NC(=O)[C@H](CCN)NC(=O)[C@H]([C@@H](C)O)NC(=O)[C@@H](CCC)NC(=O)[C@H](CCN)NC1=O)[C@@H](C)O [Compound 49] (Octanoyl-[Dab]T[Dap][Dab][Dab][dNva]T[Dab][Dab]T; lactam 4-C) | 0.5 µg/mL (≈ 0.448 µM) | 0.25 µg/mL (≈ 0.224 µM) | 16 µg/mL (≈ 14.3 µM) | 0.5 µg/mL (≈ 0.448 µM) | 0.5 µg/mL (≈ 0.448 µM) | 0.25 µg/mL (≈ 0.224 µM) | 0.5 µg/mL (≈ 0.448 µM) | 1 µg/mL (≈ 0.897 µM) | 0.5 µg/mL (≈ 0.448 µM) | –
